Data from patent US20230017045A1, “PYRIDINE AND PYRIMIDINE CARBOXYLATE HERBICIDES AND METHODS OF USE THEREOF” (Dow AgroSciences LLC, priority 2017, published 2023).

tested on: test plant species; experiment: Post-emergent herbicidal activity test (greenhouse, foliar spray, visual growth reduction); format: in vivo; details: post-emergence, 336 h, ALOMY: blackgrass (Alopecurus myosuroides), 140 g ai/ha, 14 days after application, read-out: Visual Growth Reduction (%) 14 Days After Application, ALOMY
Summary of the method: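 Greenhouse plants at first–second true leaf stage sprayed overhead at 187 L/ha with compound in acetone/water/isopropanol/DMSO/crop oil/X-77 carrier; controls received solvent blank. Injury rated visually after 14 d on a 0–100% scale versus untreated and control plants, converted to growth reduction.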

Compound	pest or weed control at 140 g/ha [%]
O=C(OCc1ccc(Cl)cc1Cl)c1nc(-c2ccc(C(F)(F)F)cc2Cl)ccc1Cl [F116, 2,4-dichlorobenzyl 3-chloro-6-(2-chloro-4-(trifluoromethyl)phenyl)picolinate]	30 to 44

same assay, conditions: post-emergence, 336 h, AMARE: redroot pigweed (Amaranthus retroflexus), 140 g ai/ha, 14 days after application, read-out: Visual Growth Reduction (%) 14 Days After Application, AMARE

Compound	pest or weed control at 140 g/ha [%]
O=C(OCc1ccc(Cl)cc1Cl)c1nc(-c2ccc(C(F)(F)F)cc2Cl)ccc1Cl [F116, 2,4-dichlorobenzyl 3-chloro-6-(2-chloro-4-(trifluoromethyl)phenyl)picolinate]	95 to 100

same assay, conditions: post-emergence, 336 h, AVEFA: wild oat (Avena fatua), 140 g ai/ha, 14 days after application, read-out: Visual Growth Reduction (%) 14 Days After Application, AVEFA

Compound	pest or weed control at 140 g/ha [%]
O=C(OCc1ccc(Cl)cc1Cl)c1nc(-c2ccc(C(F)(F)F)cc2Cl)ccc1Cl [F116, 2,4-dichlorobenzyl 3-chloro-6-(2-chloro-4-(trifluoromethyl)phenyl)picolinate]	45 to 59

same assay, conditions: post-emergence, 336 h, CHEAL: lambsquarters (Chenopodium album), 140 g ai/ha, 14 days after application, read-out: Visual Growth Reduction (%) 14 Days After Application, CHEAL

Compound	pest or weed control at 140 g/ha [%]
O=C(OCc1ccc(Cl)cc1Cl)c1nc(-c2ccc(C(F)(F)F)cc2Cl)ccc1Cl [F116, 2,4-dichlorobenzyl 3-chloro-6-(2-chloro-4-(trifluoromethyl)phenyl)picolinate]	85 to 94

same assay, conditions: post-emergence, 336 h, CIRAR: canada thistle (Cirsium arvense), 140 g ai/ha, 14 days after application, read-out: Visual Growth Reduction (%) 14 Days After Application, CIRAR

Compound	pest or weed control at 140 g/ha [%]
O=C(OCc1ccc(Cl)cc1Cl)c1nc(-c2ccc(C(F)(F)F)cc2Cl)ccc1Cl [F116, 2,4-dichlorobenzyl 3-chloro-6-(2-chloro-4-(trifluoromethyl)phenyl)picolinate]	85 to 94

same assay, conditions: post-emergence, 336 h, CYPES: yellow nutsedge (Cyperus esculentus), 140 g ai/ha, 14 days after application, read-out: Visual Growth Reduction (%) 14 Days After Application, CYPES

Compound	pest or weed control at 140 g/ha [%]
O=C(OCc1ccc(Cl)cc1Cl)c1nc(-c2ccc(C(F)(F)F)cc2Cl)ccc1Cl [F116, 2,4-dichlorobenzyl 3-chloro-6-(2-chloro-4-(trifluoromethyl)phenyl)picolinate]	0 to 29

same assay, conditions: post-emergence, 336 h, DIGSA: crabgrass (Digitaria sanguinalis), 140 g ai/ha, 14 days after application, read-out: Visual Growth Reduction (%) 14 Days After Application, DIGSA

Compound	pest or weed control at 140 g/ha [%]
O=C(OCc1ccc(Cl)cc1Cl)c1nc(-c2ccc(C(F)(F)F)cc2Cl)ccc1Cl [F116, 2,4-dichlorobenzyl 3-chloro-6-(2-chloro-4-(trifluoromethyl)phenyl)picolinate]	85 to 94

same assay, conditions: post-emergence, 336 h, ECHCG: barnyardgrass (Echinochloa crus-galli), 140 g ai/ha, 14 days after application, read-out: Visual Growth Reduction (%) 14 Days After Application, ECHCG

Compound	pest or weed control at 140 g/ha [%]
COC(=O)c1nc(-c2ccc(C(F)F)cc2)c(F)cc1Cl [F209, Methyl 3-chloro-6-(4-(difluoromethyl)phenyl)-5-fluoropicolinate]	0 to 29
O=C(OCc1ccc(Cl)cc1Cl)c1nc(-c2ccc(C(F)(F)F)cc2Cl)ccc1Cl [F116, 2,4-dichlorobenzyl 3-chloro-6-(2-chloro-4-(trifluoromethyl)phenyl)picolinate]	75 to 84
COC(=O)c1nc(-c2ccc(C(F)(F)F)cc2C)c(F)cc1F [F376, Methyl 3,5-difluoro-6-(2-methyl-4-(trifluoromethyl)phenyl)picolinate]	0 to 29

same assay, conditions: post-emergence, 336 h, IPOHE: ivy-leaf morning glory (Ipomoea hederacea), 140 g ai/ha, 14 days after application, read-out: Visual Growth Reduction (%) 14 Days After Application, IPOHE

Compound	pest or weed control at 140 g/ha [%]
COC(=O)c1nc(-c2ccc(C(F)F)cc2)c(F)cc1Cl [F209, Methyl 3-chloro-6-(4-(difluoromethyl)phenyl)-5-fluoropicolinate]	85 to 94
O=C(OCc1ccc(Cl)cc1Cl)c1nc(-c2ccc(C(F)(F)F)cc2Cl)ccc1Cl [F116, 2,4-dichlorobenzyl 3-chloro-6-(2-chloro-4-(trifluoromethyl)phenyl)picolinate]	85 to 94
COC(=O)c1nc(-c2ccc(C(F)(F)F)cc2C)c(F)cc1F [F376, Methyl 3,5-difluoro-6-(2-methyl-4-(trifluoromethyl)phenyl)picolinate]	95 to 100

same assay, conditions: post-emergence, 336 h, KCHSC: kochia (Bassia scoparia), 140 g ai/ha, 14 days after application, read-out: Visual Growth Reduction (%) 14 Days After Application, KCHSC

Compound	pest or weed control at 140 g/ha [%]
COC(=O)c1nc(-c2ccc(C(F)F)cc2)c(F)cc1Cl [F209, Methyl 3-chloro-6-(4-(difluoromethyl)phenyl)-5-fluoropicolinate]	0 to 29
O=C(OCc1ccc(Cl)cc1Cl)c1nc(-c2ccc(C(F)(F)F)cc2Cl)ccc1Cl [F116, 2,4-dichlorobenzyl 3-chloro-6-(2-chloro-4-(trifluoromethyl)phenyl)picolinate]	75 to 84
COC(=O)c1nc(-c2ccc(C(F)(F)F)cc2C)c(F)cc1F [F376, Methyl 3,5-difluoro-6-(2-methyl-4-(trifluoromethyl)phenyl)picolinate]	45 to 59

same assay, conditions: post-emergence, 336 h, ORYSA: rice (Oryza sativa), 140 g ai/ha, 14 days after application, read-out: Visual Growth Reduction (%) 14 Days After Application, ORYSA

Compound	pest or weed control at 140 g/ha [%]
COC(=O)c1nc(-c2ccc(C(F)F)cc2)c(F)cc1Cl [F209, Methyl 3-chloro-6-(4-(difluoromethyl)phenyl)-5-fluoropicolinate]	0 to 29
O=C(OCc1ccc(Cl)cc1Cl)c1nc(-c2ccc(C(F)(F)F)cc2Cl)ccc1Cl [F116, 2,4-dichlorobenzyl 3-chloro-6-(2-chloro-4-(trifluoromethyl)phenyl)picolinate]	0 to 29
COC(=O)c1nc(-c2ccc(C(F)(F)F)cc2C)c(F)cc1F [F376, Methyl 3,5-difluoro-6-(2-methyl-4-(trifluoromethyl)phenyl)picolinate]	0 to 29

same assay, conditions: post-emergence, 336 h, SETFA: giant foxtail (Setaria faberi), 140 g ai/ha, 14 days after application, read-out: Visual Growth Reduction (%) 14 Days After Application, SETFA

Compound	pest or weed control at 140 g/ha [%]
COC(=O)c1nc(-c2ccc(C(F)F)cc2)c(F)cc1Cl [F209, Methyl 3-chloro-6-(4-(difluoromethyl)phenyl)-5-fluoropicolinate]	0 to 29
O=C(OCc1ccc(Cl)cc1Cl)c1nc(-c2ccc(C(F)(F)F)cc2Cl)ccc1Cl [F116, 2,4-dichlorobenzyl 3-chloro-6-(2-chloro-4-(trifluoromethyl)phenyl)picolinate]	60 to 74
COC(=O)c1nc(-c2ccc(C(F)(F)F)cc2C)c(F)cc1F [F376, Methyl 3,5-difluoro-6-(2-methyl-4-(trifluoromethyl)phenyl)picolinate]	60 to 74

same assay, conditions: post-emergence, 336 h, SORVU: grain sorghum (Sorghum vulgare), 140 g ai/ha, 14 days after application, read-out: Visual Growth Reduction (%) 14 Days After Application, SORVU

Compound	pest or weed control at 140 g/ha [%]
COC(=O)c1nc(-c2ccc(C(F)F)cc2)c(F)cc1Cl [F209, Methyl 3-chloro-6-(4-(difluoromethyl)phenyl)-5-fluoropicolinate]	0 to 29
O=C(OCc1ccc(Cl)cc1Cl)c1nc(-c2ccc(C(F)(F)F)cc2Cl)ccc1Cl [F116, 2,4-dichlorobenzyl 3-chloro-6-(2-chloro-4-(trifluoromethyl)phenyl)picolinate]	85 to 94
COC(=O)c1nc(-c2ccc(C(F)(F)F)cc2C)c(F)cc1F [F376, Methyl 3,5-difluoro-6-(2-methyl-4-(trifluoromethyl)phenyl)picolinate]	85 to 94

same assay, conditions: post-emergence, 336 h, STEME: common chickweed (Stellaria media), 140 g ai/ha, 14 days after application, read-out: Visual Growth Reduction (%) 14 Days After Application, STEME

Compound	pest or weed control at 140 g/ha [%]
COC(=O)c1nc(-c2ccc(C(F)F)cc2)c(F)cc1Cl [F209, Methyl 3-chloro-6-(4-(difluoromethyl)phenyl)-5-fluoropicolinate]	0 to 29
O=C(OCc1ccc(Cl)cc1Cl)c1nc(-c2ccc(C(F)(F)F)cc2Cl)ccc1Cl [F116, 2,4-dichlorobenzyl 3-chloro-6-(2-chloro-4-(trifluoromethyl)phenyl)picolinate]	0 to 29
COC(=O)c1nc(-c2ccc(C(F)(F)F)cc2C)c(F)cc1F [F376, Methyl 3,5-difluoro-6-(2-methyl-4-(trifluoromethyl)phenyl)picolinate]	0 to 29

same assay, conditions: post-emergence, 336 h, TRZAS: wheat, spring (Triticum aestivum), 140 g ai/ha, 14 days after application, read-out: Visual Growth Reduction (%) 14 Days After Application, TRZAS

Compound	pest or weed control at 140 g/ha [%]
COC(=O)c1nc(-c2ccc(C(F)F)cc2)c(F)cc1Cl [F209, Methyl 3-chloro-6-(4-(difluoromethyl)phenyl)-5-fluoropicolinate]	0 to 29
O=C(OCc1ccc(Cl)cc1Cl)c1nc(-c2ccc(C(F)(F)F)cc2Cl)ccc1Cl [F116, 2,4-dichlorobenzyl 3-chloro-6-(2-chloro-4-(trifluoromethyl)phenyl)picolinate]	60 to 74
COC(=O)c1nc(-c2ccc(C(F)(F)F)cc2C)c(F)cc1F [F376, Methyl 3,5-difluoro-6-(2-methyl-4-(trifluoromethyl)phenyl)picolinate]	0 to 29

same assay, conditions: post-emergence, 336 h, blackgrass (Alopecurus myosuroides), 14 Days After Application, 140 g ai/ha, read-out: Visual Growth Reduction (%) ALOMY

Compound	pest or weed control at 140 g/ha [%]
COC(=O)c1nc(-c2ccc(C(F)F)cc2)c(F)cc1Cl [F209, Methyl 3-chloro-6-(4-(difluoromethyl)phenyl)-5-fluoropicolinate]	0 to 29
COC(=O)c1nc(-c2ccc(C(F)(F)F)cc2C)c(F)cc1F [F376, Methyl 3,5-difluoro-6-(2-methyl-4-(trifluoromethyl)phenyl)picolinate]	0 to 29

same assay, conditions: post-emergence, 336 h, canada thistle (Cirsium arvense), 14 Days After Application, 140 g ai/ha, read-out: Visual Growth Reduction (%) CIRAR

Compound	pest or weed control at 140 g/ha [%]
COC(=O)c1nc(-c2ccc(C(F)F)cc2)c(F)cc1Cl [F209, Methyl 3-chloro-6-(4-(difluoromethyl)phenyl)-5-fluoropicolinate]	60 to 74
COC(=O)c1nc(-c2ccc(C(F)(F)F)cc2C)c(F)cc1F [F376, Methyl 3,5-difluoro-6-(2-methyl-4-(trifluoromethyl)phenyl)picolinate]	60 to 74

same assay, conditions: post-emergence, 336 h, crabgrass (Digitaria sanguinalis), 14 Days After Application, 140 g ai/ha, read-out: Visual Growth Reduction (%) DIGSA

Compound	pest or weed control at 140 g/ha [%]
COC(=O)c1nc(-c2ccc(C(F)F)cc2)c(F)cc1Cl [F209, Methyl 3-chloro-6-(4-(difluoromethyl)phenyl)-5-fluoropicolinate]	0 to 29
COC(=O)c1nc(-c2ccc(C(F)(F)F)cc2C)c(F)cc1F [F376, Methyl 3,5-difluoro-6-(2-methyl-4-(trifluoromethyl)phenyl)picolinate]	60 to 74

same assay, conditions: post-emergence, 336 h, lambsquarters (Chenopodium album), 14 Days After Application, 140 g ai/ha, read-out: Visual Growth Reduction (%) CHEAL

Compound	pest or weed control at 140 g/ha [%]
COC(=O)c1nc(-c2ccc(C(F)F)cc2)c(F)cc1Cl [F209, Methyl 3-chloro-6-(4-(difluoromethyl)phenyl)-5-fluoropicolinate]	85 to 94
COC(=O)c1nc(-c2ccc(C(F)(F)F)cc2C)c(F)cc1F [F376, Methyl 3,5-difluoro-6-(2-methyl-4-(trifluoromethyl)phenyl)picolinate]	85 to 94

same assay, conditions: post-emergence, 336 h, redroot pigweed (Amaranthus retroflexus), 14 Days After Application, 140 g ai/ha, read-out: Visual Growth Reduction (%) AMARE

Compound	pest or weed control at 140 g/ha [%]
COC(=O)c1nc(-c2ccc(C(F)F)cc2)c(F)cc1Cl [F209, Methyl 3-chloro-6-(4-(difluoromethyl)phenyl)-5-fluoropicolinate]	45 to 59
COC(=O)c1nc(-c2ccc(C(F)(F)F)cc2C)c(F)cc1F [F376, Methyl 3,5-difluoro-6-(2-methyl-4-(trifluoromethyl)phenyl)picolinate]	95 to 100

same assay, conditions: post-emergence, 336 h, wild oat (Avena fatua), 14 Days After Application, 140 g ai/ha, read-out: Visual Growth Reduction (%) AVEFA

Compound	pest or weed control at 140 g/ha [%]
COC(=O)c1nc(-c2ccc(C(F)F)cc2)c(F)cc1Cl [F209, Methyl 3-chloro-6-(4-(difluoromethyl)phenyl)-5-fluoropicolinate]	0 to 29
COC(=O)c1nc(-c2ccc(C(F)(F)F)cc2C)c(F)cc1F [F376, Methyl 3,5-difluoro-6-(2-methyl-4-(trifluoromethyl)phenyl)picolinate]	0 to 29

same assay, conditions: post-emergence, 336 h, yellow nutsedge (Cyperus esculentus), 14 Days After Application, 140 g ai/ha, read-out: Visual Growth Reduction (%) CYPES

Compound	pest or weed control at 140 g/ha [%]
COC(=O)c1nc(-c2ccc(C(F)F)cc2)c(F)cc1Cl [F209, Methyl 3-chloro-6-(4-(difluoromethyl)phenyl)-5-fluoropicolinate]	0 to 29
COC(=O)c1nc(-c2ccc(C(F)(F)F)cc2C)c(F)cc1F [F376, Methyl 3,5-difluoro-6-(2-methyl-4-(trifluoromethyl)phenyl)picolinate]	0 to 29
